The values below come from patent US8822449B2, “Substituted aminoindanes and analogs thereof, and the pharmaceutical use thereof” (Sanofi, priority 2008, dated 2014).

Structures are written as SMILES.

For the test, the target named is T1, sodium-proton exchanger of subtype 3 (NHE3) (Homo sapiens, UniProt P48764).
T1 construct: expressed in transfected cells
T1 sequence (P48764 26-834): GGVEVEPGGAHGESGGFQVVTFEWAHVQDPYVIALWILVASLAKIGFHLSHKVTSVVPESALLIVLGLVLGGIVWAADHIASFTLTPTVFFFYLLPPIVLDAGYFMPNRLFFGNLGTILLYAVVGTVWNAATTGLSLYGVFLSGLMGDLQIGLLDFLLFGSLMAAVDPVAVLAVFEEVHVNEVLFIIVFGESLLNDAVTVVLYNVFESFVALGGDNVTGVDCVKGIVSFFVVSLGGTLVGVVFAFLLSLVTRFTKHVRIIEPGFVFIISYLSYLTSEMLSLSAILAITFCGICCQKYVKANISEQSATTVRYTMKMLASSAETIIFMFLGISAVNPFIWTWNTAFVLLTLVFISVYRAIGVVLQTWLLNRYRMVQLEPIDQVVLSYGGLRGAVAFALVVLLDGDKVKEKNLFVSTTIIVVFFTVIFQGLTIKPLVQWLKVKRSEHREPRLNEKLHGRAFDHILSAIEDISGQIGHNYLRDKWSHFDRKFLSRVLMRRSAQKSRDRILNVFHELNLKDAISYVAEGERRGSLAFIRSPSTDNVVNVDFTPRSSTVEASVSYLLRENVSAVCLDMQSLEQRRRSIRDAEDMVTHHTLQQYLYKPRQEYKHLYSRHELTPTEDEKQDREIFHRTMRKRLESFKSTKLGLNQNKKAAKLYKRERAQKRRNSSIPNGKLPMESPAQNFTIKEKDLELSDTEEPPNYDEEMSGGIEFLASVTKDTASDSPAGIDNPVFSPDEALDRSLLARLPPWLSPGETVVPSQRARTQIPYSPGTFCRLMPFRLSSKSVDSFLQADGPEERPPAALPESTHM
Kind of test: Recovery of intracellular pH (pHi) after acidification in LAP1 cells stably expressing NHE3 (BCECF fluorescence, FLIPR). Type of test: cell-based. To be noted: LAP1 cells stably expressing NHE3; pH recovery after acidification; range 1 is % inhibition at 10 μM; read-out: Activity range (inhibitory effect on NHE3).
`Cc1cc(O[C@H]2c3cc(Cl)cc(F)c3C[C@@H]2N2CCCC2)ccc1S(C)(=O)=O` (racemic) [Example 291, 1-[rac-trans-(1,2)-6-chloro-4-fluoro-1-(4-methanesulfonyl-3-methylphenoxy)indan-2-yl]pyrrolidine]: the IC50 is 1 to 10 µM.
The same measure, in the same setting: next, `CS(=O)(=O)c1ccc(O[C@@H]2c3cc(Cl)cc(Cl)c3C[C@H]2n2ccnc2)cc1` (racemic) [Example 278, 1-[rac-trans-(1,2)-4,6-dichloro-1-(4-methanesulfonylphenoxy)indan-2-yl]-1H-imidazole]: 1 to 10 µM; `CCN(CC)[C@@H]1Cc2ccccc2[C@H]1Oc1ccc2c(c1)C(C)C(=O)N2C` (mixture of isomers) [Example 568, 5-(rac-trans-(1,2)-2-diethylaminoindan-1-yloxy)-1,3-dimethyl-1,3-dihydroindol-2-one]: 1 to 10 µM.
As for `O=C1CCC(=O)N1c1cccc(O[C@H]2c3ccccc3C[C@@H]2N2CCCC2)c1` (racemic) [Example 256, 1-[3-(rac-trans-(1,2)-2-pyrrolidin-1-ylindan-1-yloxy)phenyl]pyrrolidine-2,5-dione], the IC50 lay within 1 to 10 µM.
In the case of `COc1cccc(OC)c1O[C@H]1c2ccccc2CC[C@@H]1N1CCC[C@@H](N)C1` (racemic) [Example 34, (R)-1-[rac-trans-(1,2)-1-(2,6-dimethoxyphenoxy)-1,2,3,4-tetrahydronaphthalen-2-yl]piperidin-3-ylamine], the inhibition at 10 µM lay in the range of 20 to 50%.
On to `CCOC(=O)c1ncoc1-c1ccc(O[C@H]2c3ccccc3CC[C@@H]2N2CCC[C@@H](N)C2)cc1` (racemic) [Example 583, 5-{4-[rac-trans-(1,2)-2-((R)-3-aminopiperidin-1-yl)-1,2,3,4-tetrahydronaphthalen-1-yloxy]phenyl}oxazole-4-carboxylic acid ethyl ester], for which the IC50 is 1 to 10 µM.
As to `Cc1cc(O[C@@H]2c3cc(Cl)cc(F)c3C[C@H]2N2CCC[C@@H](N)C2)ccc1S(=O)(=O)C(F)(F)F` (racemic) [Example 92, (R)-1-[rac-trans-(1,2)-6-chloro-4-fluoro-1-(3-methyl-4-trifluoromethanesulfonylphenoxy)indan-2-yl]piperidin-3-ylamine], the inhibition at 10 µM lay within 20 to 50%.
For `CN(C1CCCC1)[C@@H]1Cc2ccccc2[C@H]1Oc1ccc(S(C)(=O)=O)cc1` (racemic) [Example 730, Cyclopentyl-[rac-trans-(1,2)-1-(4-methanesulfonyl-phenoxy)-indan-2-yl]-methyl-amine], the IC50 fell in the range of 1 to 10 µM.
For `N[C@H]1CCCN([C@H]2CCc3ccccc3[C@@H]2Oc2ccc(N3CCNCC3)cc2)C1` (racemic) [Example 184, (S)-1-[rac-trans-(1,2)-1-(4-piperazin-1-ylphenoxy)-1,2,3,4-tetrahydronaphthalen-2-yl]piperidin-3-ylamine], the inhibition at 10 µM was in the range of 20 to 50%.
Consider `N#Cc1cc(Cl)ccc1O[C@@H]1c2ccccc2C[C@H]1N1CCC(CN)CC1` (racemic) [Example 376, 2-[rac-trans-(1,2)-2-(4-aminomethylpiperidin-1-yl)indan-1-yloxy]-5-chlorobenzonitrile], for which the IC50 was 1 to 10 µM.
As for `COCCN1CCCN([C@H]2Cc3c(Cl)cc(Cl)cc3[C@@H]2Oc2ccc(S(C)(=O)=O)cc2)CC1` [Example 304, 1-[trans-(1S,2S)-4,6-dichloro-1-(4-methanesulfonylphenoxy)indan-2-yl]-4-(2-methoxyethyl)-[1,4]diazepane], the IC50 was below 1 µM.
Consider `N[C@@H]1CCCN([C@H]2CCc3ccccc3[C@@H]2Oc2ccc(Cl)nc2)C1` (racemic) [Example 81, (R)-1-[rac-trans-(1,2)-1-(6-chloropyridin-3-yloxy)-1,2,3,4-tetrahydronaphthalen-2-yl]piperidin-3-ylamine], for which the inhibition at 10 µM lay in the range of 20 to 50%.
With `CC1(C)OC(=O)N(c2ccc(Cl)c(O[C@H]3c4cc(Cl)cc(F)c4C[C@@H]3N3CC[C@@H](O)C3)c2)C1=O` [Example 437, 3-{4-chloro-3-[(1S,2S)-6-chloro-4-fluoro-2-((R)-3-hydroxypyrrolidin-1-yl)indan-1-yloxy]phenyl}-5,5-dimethyloxazolidine-2,4-dione], the IC50 was 1 to 10 µM.
Turning to `CS(=O)(=O)c1ccc(O[C@H]2c3ccccc3C[C@@H]2N2CCC[C@@H](NC(=O)C(F)(F)F)C2)cc1` [Example 354, 2,2,2-trifluoro-N-{(R)-1-[trans-(1S,2S)-1-(4-methanesulfonylphenoxy)indan-2-yl]piperidin-3-yl}acetamide], the inhibition at 10 µM lay within 20 to 50%.
For `CS(=O)(=O)c1ccc(O[C@H]2c3cc(Cl)ccc3C[C@@H]2N2CC[C@@H](O)C2)c(Cl)c1` [Example 107, (R)-1-[trans-(1S,2S)-6-chloro-1-(2-chloro-4-methanesulfonylphenoxy)indan-2-yl]pyrrolidin-3-ol], the IC50 was in the range of 1 to 10 µM.
The same measure, in the same setting: next, `CCN(CC)[C@@H]1Cc2ccccc2[C@H]1Oc1ccc(S(N)(=O)=O)c(Cl)c1Cl` (racemic) [Example 355, 2,3-dichloro-4-(rac-trans-(1,2)-2-diethylaminoindan-1-yloxy)benzenesulfonamide]: 1 to 10 µM.
On to `N[C@H]1CCCN([C@H]2CCc3ccccc3[C@@H]2Oc2cccc(OC(F)F)c2)C1` (racemic) [Example 166, (S)-1-[rac-trans-(1,2)-1-(3-difluoromethoxyphenoxy)-1,2,3,4-tetrahydronaphthalen-2-yl]piperidin-3-ylamine], for which the inhibition at 10 µM lay within 20 to 50%.
On to `N#Cc1ccc(O[C@H]2c3cc(Cl)cc(Cl)c3C[C@@H]2N2CC[C@@H](O)C2)c(F)c1` [Example 554, 4-[trans-(1S,2S)-4,6-dichloro-2-((R)-3-hydroxypyrrolidin-1-yl)indan-1-yloxy]-3-fluorobenzonitrile], for which the IC50 lay in the range of 1 to 10 µM.
On the same count and under the same terms, under `Cc1c(O[C@H]2c3ccccc3C[C@@H]2N2CCCC2)ccc(-n2c(C)nnc2C)c1C` (racemic) [Example 488, 4-[2,3-dimethyl-4-(rac-trans-(1,2)-2-pyrrolidin-1-ylindan-1-yloxy)phenyl]-3,5-dimethyl-4H-[1,2,4]triazole] stands below 1 µM; under `O=C1CCC(=O)N1c1cccc(O[C@H]2c3cc(Cl)cc(Cl)c3C[C@@H]2N2CC[C@@H](O)C2)c1` [Example 316, 1-{3-[(1S,2S)-4,6-dichloro-2-((R)-3-hydroxypyrrolidin-1-yl)indan-1-yloxy]phenyl}pyrrolidine-2,5-dione], 1 to 10 µM.
The same measure, in the same setting: next, `Cc1nnc(C)n1-c1ccc(O[C@H]2c3cc(Cl)ccc3C[C@@H]2N2CCCC2)c(Cl)c1` [Example 492, 4-[3-chloro-4-(trans-(1S,2S)-6-chloro-2-pyrrolidin-1-ylindan-1-yloxy)phenyl]-3,5-dimethyl-4H-[1,2,4]triazole]: below 1 µM.
Same read-out and setting: under `NC(=O)c1cc(Cl)ccc1O[C@H]1c2ccccc2CC[C@@H]1N1CCC[C@H](N)C1` (racemic) [Example 370, 2-[rac-trans-(1,2)-2-((S)-3-aminopiperidin-1-yl)-1,2,3,4-tetrahydronaphthalen-1-yloxy]-5-chlorobenzamide] stands below 1 µM; under `NC(=O)Cc1c[nH]c2ccc(O[C@@H]3c4ccccc4C[C@H]3N3CCC(N)C3)cc12` (mixture of isomers) [Example 387, 2-{5-[rac-trans-(1,2)-2-(3-aminopyrrolidin-1-yl)indan-1-yloxy]-1H-indol-3-yl}acetamide], 1 to 10 µM; under `Cc1nn(-c2ccc(O[C@H]3c4cc(Cl)cc(Cl)c4C[C@@H]3N3CC[C@@H](O)C3)cc2)c(=O)o1` [Example 733, 3-{4-[trans-(1S,2S)-4,6-Dichloro-2-((R)-3-hydroxy-pyrrolidin-1-yl)-indan-1-yloxy]-phenyl}-5-methyl-3H-[1,3,4]oxadiazol-2-one], 1 to 10 µM.
As for `O=C1OCCN1c1ccc(Cl)c(O[C@H]2c3cc(Cl)cc(F)c3C[C@@H]2N2CC[C@@H](O)C2)c1` [Example 439, 3-{4-chloro-3-[(1S,2S)-6-chloro-4-fluoro-2-((R)-3-hydroxypyrrolidin-1-yl)indan-1-yloxy]phenyl}oxazolidin-2-one], the IC50 was below 1 µM.
On the same count and under the same terms, next, `CCc1nc(C)cn1-c1ccc(F)c(O[C@H]2c3cc(Cl)cc(Cl)c3C[C@@H]2N2CC[C@@H](O)C2)c1` [Example 725, (R)-1-{trans-(1S,2S)-4,6-Dichloro-1-[5-(2-ethyl-4-methyl-imidazol-1-yl)-2-fluoro-phenoxy]-indan-2-yl}-pyrrolidin-3-ol]: 1 to 10 µM.
Take `N#Cc1ccc(O[C@H]2c3ccccc3CC[C@@H]2N2CCC[C@H](N)C2)cc1F` (racemic) [Example 530, 4-[rac-trans-(1,2)-2-((S)-3-aminopiperidin-1-yl)-1,2,3,4-tetrahydronaphthalen-1-yloxy]-2-fluorobenzonitrile]: the inhibition at 10 µM was in the range of 20 to 50%.
As for `O=C1CNC(=O)N1c1ccc(Cl)c(O[C@H]2c3cc(Cl)cc(Cl)c3C[C@@H]2N2CC[C@@H](O)C2)c1` [Example 433, 3-{4-chloro-3-[(1S,2S)-4,6-dichloro-2-((R)-3-hydroxypyrrolidin-1-yl)indan-1-yloxy]phenyl}imidazolidine-2,4-dione], the IC50 lay within 1 to 10 µM.
